Experimental data: PubChem BioAssay AID248 (DTP/NCI, 2004)
Values joined by “and” are separate entries in the source; they are usually repeats but may differ in a detail not shown here. Equal values may be shown once. Toxic doses and inconclusive results are not listed. No stated cut-off is given here; in the data, active means T/C of 150% or more; inactive means T/C below 125%.

System: L1210 leukemia ip in BDF1 mice, survival T/C
Assay: NCI In Vivo Anticancer Drug Screen. Data for tumor model L1210 Leukemia (intraperitoneal) in B6D2F1 (BDF1) mice
Settings: higher = longer survival
Outline: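 Tumor cells were implanted, animals were treated, and survival was followed. The result divides the treated measurement by the vehicle-control measurement.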

[1] = endpoint: mean survival time, dose: 100.0 mg/kg/injection, schedule: Q01DX001 (ip), vehicle: saline
[2] = endpoint: mean survival time, dose: 25.0 mg/kg/injection, schedule: Q04DX003 (ip), vehicle: saline with Tween-80
[3] = endpoint: mean survival time, dose: 5.0 mg/kg/injection, schedule: Q01DX009 (ip), vehicle: saline
[4] = endpoint: mean survival time, dose: 50.0 mg/kg/injection, schedule: Q01DX001 (ip), vehicle: carboxymethylcellulose (CMC)
[5] = endpoint: mean survival time, dose: 100.0 mg/kg/injection, schedule: Q01DX001 (ip), vehicle: carboxymethylcellulose (CMC)
[6] = endpoint: mean survival time, dose: 200.0 mg/kg/injection, schedule: Q01DX001 (ip), vehicle: carboxymethylcellulose (CMC)
[7] = endpoint: mean survival time, dose: 100.0 mg/kg/injection, schedule: Q04DX002 (ip), vehicle: saline
[8] = endpoint: mean survival time, dose: 100.0 mg/kg/injection, schedule: Q04DX003 (ip), vehicle: Klucel (hydroxypropylcellulose) (HPC)

Measured: T/C

O=C(O)c1ccccc1N=Cc1ccc[nH]1
inactive: endpoint: mean survival time, dose: 100.0 mg/kg/injection, schedule: Q04DX002 (ip), vehicle: Klucel (hydroxypropylcellulose) (HPC) 115 % of control | endpoint: mean survival time, dose: 200.0 mg/kg/injection, schedule: Q04DX002 (ip), vehicle: Klucel (hydroxypropylcellulose) (HPC) 100 % of control | endpoint: mean survival time, dose: 400.0 mg/kg/injection, schedule: Q04DX002 (ip), vehicle: Klucel (hydroxypropylcellulose) (HPC) 96 % of control

CCOC(=O)c1occ(Cl)c1Cl
inactive: [1] 107 % of control | endpoint: mean survival time, dose: 200.0 mg/kg/injection, schedule: Q01DX001 (ip), vehicle: saline 113 % of control

COCC(COC)CC1CO1 (stereo not drawn)
inactive: endpoint: mean survival time, dose: 50.0 mg/kg/injection, schedule: Q01DX009 (ip), vehicle: saline with Tween-80 96 % of control | endpoint: mean survival time, dose: 100.0 mg/kg/injection, schedule: Q01DX009 (ip), vehicle: saline with Tween-80 100 % of control | endpoint: mean survival time, dose: 200.0 mg/kg/injection, schedule: Q01DX009 (ip), vehicle: saline with Tween-80 96 % of control

C=CCNC(=O)c1ccc[n+](CC(=O)NCCCCCCCCCC)c1
inactive: endpoint: mean survival time, dose: 12.5 mg/kg/injection, schedule: Q04DX003 (ip), vehicle: saline with Tween-80 95 % of control | [2] 101 % of control | endpoint: mean survival time, dose: 50.0 mg/kg/injection, schedule: Q04DX003 (ip), vehicle: saline with Tween-80 94 % of control

NC(=O)c1[nH]nc(C2OC(CO)C(O)C2O)c1O (stereo not drawn)
inactive: endpoint: mean survival time, dose: 2.5 mg/kg/injection, schedule: Q01DX009 (ip), vehicle: saline 115 % of control | endpoint: mean survival time, dose: 2.5 mg/kg/injection, schedule: Q04DX003 (ip), vehicle: saline 110 % of control | endpoint: mean survival time, dose: 5.0 mg/kg/injection, schedule: Q01DX001 (ip), vehicle: saline 109 % of control | [3] 96 % of control | endpoint: mean survival time, dose: 5.0 mg/kg/injection, schedule: Q04DX003 (ip), vehicle: saline 111 % of control and 123 % of control | endpoint: mean survival time, dose: 6.6 mg/kg/injection, schedule: Q04DX003 (ip), vehicle: saline 107 % of control | endpoint: mean survival time, dose: 10.0 mg/kg/injection, schedule: Q01DX001 (ip), vehicle: saline 113 % of control | endpoint: mean survival time, dose: 10.0 mg/kg/injection, schedule: Q04DX003 (ip), vehicle: saline 113 % of control and 121 % of control | endpoint: mean survival time, dose: 20.0 mg/kg/injection, schedule: Q01DX001 (ip), vehicle: saline 111 % of control | endpoint: mean survival time, dose: 20.0 mg/kg/injection, schedule: Q04DX003 (ip), vehicle: saline 121 % of control | endpoint: median survival time, dose: 0.5 mg/kg/injection, schedule: Q04DX003 (ip), vehicle: saline 108 % of control | endpoint: median survival time, dose: 1.0 mg/kg/injection, schedule: Q04DX003 (ip), vehicle: saline 106 % of control and 107 % of control | endpoint: median survival time, dose: 2.0 mg/kg/injection, schedule: Q04DX003 (ip), vehicle: saline 107 % of control and 112 % of control | endpoint: median survival time, dose: 4.0 mg/kg/injection, schedule: Q04DX003 (ip), vehicle: saline 109 % of control and 118 % of control | endpoint: median survival time, dose: 8.0 mg/kg/injection, schedule: Q04DX003 (ip), vehicle: saline 112 % of control and 121 % of control

C=CC(C)NC(=S)NNC(=S)NC (stereo not drawn)
inactive: endpoint: mean survival time, dose: 15.0 mg/kg/injection, schedule: Q01DX015 (ip), vehicle: carboxymethylcellulose (CMC) 95 % of control | endpoint: mean survival time, dose: 30.0 mg/kg/injection, schedule: Q01DX015 (ip), vehicle: carboxymethylcellulose (CMC) 104 % of control | [4] 104 % of control | endpoint: mean survival time, dose: 60.0 mg/kg/injection, schedule: Q01DX015 (ip), vehicle: carboxymethylcellulose (CMC) 95 % of control | [5] 105 % of control | endpoint: mean survival time, dose: 120.0 mg/kg/injection, schedule: Q01DX015 (ip), vehicle: carboxymethylcellulose (CMC) 98 % of control | [6] 109 % of control | endpoint: mean survival time, dose: 240.0 mg/kg/injection, schedule: Q01DX015 (ip), vehicle: carboxymethylcellulose (CMC) 87 % of control and 89 % of control

S=C(n1ccnc1)n1ccnc1
inactive: endpoint: mean survival time, dose: 25.0 mg/kg/injection, schedule: Q01DX009 (ip), vehicle: saline 100 % of control | endpoint: mean survival time, dose: 25.0 mg/kg/injection, schedule: Q04DX003 (ip), vehicle: saline 106 % of control | endpoint: mean survival time, dose: 50.0 mg/kg/injection, schedule: Q01DX009 (ip), vehicle: saline 95 % of control | endpoint: mean survival time, dose: 50.0 mg/kg/injection, schedule: Q04DX003 (ip), vehicle: saline 105 % of control | endpoint: mean survival time, dose: 100.0 mg/kg/injection, schedule: Q01DX009 (ip), vehicle: saline 103 % of control | endpoint: mean survival time, dose: 100.0 mg/kg/injection, schedule: Q04DX003 (ip), vehicle: saline 103 % of control | endpoint: mean survival time, dose: 150.0 mg/kg/injection, schedule: Q01DX009 (ip), vehicle: saline 94 % of control | endpoint: mean survival time, dose: 225.0 mg/kg/injection, schedule: Q01DX009 (ip), vehicle: saline 92 % of control

NCCc1ccc(O)c(CO)c1
inactive: [7] 105 % of control | endpoint: mean survival time, dose: 200.0 mg/kg/injection, schedule: Q04DX002 (ip), vehicle: saline 86 % of control | endpoint: mean survival time, dose: 400.0 mg/kg/injection, schedule: Q04DX002 (ip), vehicle: saline 105 % of control

O=C1C=CC(=O)N1c1ccc(Br)cc1Cl
inactive: endpoint: mean survival time, dose: 0.78 mg/kg/injection, schedule: Q04DX003 (ip), vehicle: saline 91 % of control | endpoint: mean survival time, dose: 1.0 mg/kg/injection, schedule: Q01DX009 (ip), vehicle: saline 101 % of control | endpoint: mean survival time, dose: 1.56 mg/kg/injection, schedule: Q04DX003 (ip), vehicle: saline 93 % of control | endpoint: mean survival time, dose: 2.0 mg/kg/injection, schedule: Q01DX009 (ip), vehicle: saline 110 % of control | endpoint: mean survival time, dose: 3.13 mg/kg/injection, schedule: Q04DX003 (ip), vehicle: saline 106 % of control | endpoint: mean survival time, dose: 4.0 mg/kg/injection, schedule: Q01DX009 (ip), vehicle: saline 89 % of control | [2] 100 % of control | [8] 93 % of control

C=C1C(=O)N(C)C(C(=O)OC)CC1(O)C(CC)C(=O)OC (stereo not drawn)
inactive: endpoint: mean survival time, dose: 18.7 mg/kg/injection, schedule: Q01DX001 (ip), vehicle: saline 94 % of control | endpoint: mean survival time, dose: 37.5 mg/kg/injection, schedule: Q01DX001 (ip), vehicle: saline 98 % of control | endpoint: mean survival time, dose: 75.0 mg/kg/injection, schedule: Q01DX001 (ip), vehicle: saline 117 % of control | endpoint: mean survival time, dose: 150.0 mg/kg/injection, schedule: Q01DX001 (ip), vehicle: saline 102 % of control

Cc1ccc(S(=O)(=O)N=S(C)C)cc1
inactive: [4] 104 % of control | [5] 104 % of control | [6] 98 % of control | endpoint: mean survival time, dose: 400.0 mg/kg/injection, schedule: Q01DX001 (ip), vehicle: carboxymethylcellulose (CMC) 93 % of control | endpoint: mean survival time, dose: 800.0 mg/kg/injection, schedule: Q01DX001 (ip), vehicle: carboxymethylcellulose (CMC) 105 % of control | endpoint: mean survival time, dose: 1200.0 mg/kg/injection, schedule: Q01DX001 (ip), vehicle: carboxymethylcellulose (CMC) 103 % of control | endpoint: mean survival time, dose: 1600.0 mg/kg/injection, schedule: Q01DX001 (ip), vehicle: carboxymethylcellulose (CMC) 109 % of control

O=C(Nc1ccccc1C(F)(F)F)OCCOc1ccc([N+](=O)[O-])cc1
inactive: [8] 89 % of control | endpoint: mean survival time, dose: 200.0 mg/kg/injection, schedule: Q04DX003 (ip), vehicle: Klucel (hydroxypropylcellulose) (HPC) 87 % of control | endpoint: mean survival time, dose: 400.0 mg/kg/injection, schedule: Q04DX003 (ip), vehicle: Klucel (hydroxypropylcellulose) (HPC) 92 % of control

CCCCCCCCCCCCCCCCCC(=O)NN=C1CCCC1
inactive: endpoint: mean survival time, dose: 100.0 mg/kg/injection, schedule: Q01DX009 (ip), vehicle: Klucel (hydroxypropylcellulose) (HPC) 95 % of control | endpoint: mean survival time, dose: 200.0 mg/kg/injection, schedule: Q01DX009 (ip), vehicle: Klucel (hydroxypropylcellulose) (HPC) 93 % of control | endpoint: mean survival time, dose: 400.0 mg/kg/injection, schedule: Q01DX009 (ip), vehicle: Klucel (hydroxypropylcellulose) (HPC) 107 % of control

Nc1nc(N)c(CCCCc2ccccc2)c(/C=C/c2ccc([N+](=O)[O-])cc2)n1
inactive: endpoint: mean survival time, dose: 100.0 mg/kg/injection, schedule: Q01DX001 (ip), vehicle: gum acacia 92 % of control | endpoint: mean survival time, dose: 200.0 mg/kg/injection, schedule: Q01DX001 (ip), vehicle: gum acacia 94 % of control | endpoint: mean survival time, dose: 400.0 mg/kg/injection, schedule: Q01DX001 (ip), vehicle: gum acacia 95 % of control

CCOC(=O)NCc1ccco1
inactive: [3] 89 % of control | endpoint: mean survival time, dose: 10.0 mg/kg/injection, schedule: Q01DX009 (ip), vehicle: saline 109 % of control | endpoint: mean survival time, dose: 20.0 mg/kg/injection, schedule: Q01DX009 (ip), vehicle: saline 93 % of control

CN(CCCl)C1c2ccccc2-c2ccccc21
inactive: endpoint: mean survival time, dose: 25.0 mg/kg/injection, schedule: Q04DX002 (ip), vehicle: saline 100 % of control | endpoint: mean survival time, dose: 50.0 mg/kg/injection, schedule: Q04DX002 (ip), vehicle: saline 100 % of control | [7] 106 % of control and 117 % of control

Cc1ccccc1S(=O)(=O)NSc1ccccc1[N+](=O)[O-]
inactive: endpoint: mean survival time, dose: 75.0 mg/kg/injection, schedule: Q01DX001 (ip), vehicle: other 101 % of control | endpoint: mean survival time, dose: 150.0 mg/kg/injection, schedule: Q01DX001 (ip), vehicle: other 95 % of control | endpoint: mean survival time, dose: 300.0 mg/kg/injection, schedule: Q01DX001 (ip), vehicle: other 95 % of control

NNCC(F)(F)F
inactive: [1] 101 % of control
